The conditions of data set [1]: cited from earlier work.
A short description of data set [2]: Expected patient plasma DXA at the exemplary elution rates. Format: in vivo. To be noted: below LOQ. How it is done:
With a manufacturing process that consists of at least two months (60 days) from the start of elution until implant, and using data from in vitro release testing, a daily release of between approximately 2 and 5 μg DXA in one exemplary embodiment is expected over the life of the implant (average of approximately 3 μg/day). These exemplary elution rates are within range of the elution rates seen in the above-referenced predicate devices. At these elution rates, it can be reasonably expected that patient plasma DXA levels to be below the 50 pg/mL LOQ. The full modeled release profile is shown in FIG. 2, which illustrates total release 212 of DXA from the implantable sensor device accumulating prior to implantation with, daily release 214 of DXA from the implantable sensor starting at a rate of approximately 4.8 μg per day upon implantation and gradually reducing to below 2.0 μg/day over the period of implantation. In other embodiments, DSP, other dexamethasone compounds, and/or other eluting anti-inflammatory drugs may be used similarly.

For data set [3] the following is noted: human, in vivo.
The conditions of data set [4]: cited from earlier work. The source holds these as a separate data set.

We go through 2 molecules from patent publication US20220338769A1, “METHODS AND APPARATUS FOR SUBSTANCE DELIVERY IN AN IMPLANTABLE DEVICE” (GlySens Incorporated, priority 2021, published 2022).

A value given as a limit tells only on which side of the number the result lay.

Take `C[C@@H]1C[C@H]2[C@@H]3CCC4=CC(=O)C=C[C@]4(C)[C@@]3(F)[C@@H](O)C[C@]2(C)[C@@]1(O)C(=O)COP(=O)(O)O` [DSP, dexamethasone sodium phosphate]: in data set [1], the water solubility entry was “highly water soluble”.
For `CC(=O)OCC(=O)[C@@]1(O)[C@H](C)C[C@H]2[C@@H]3CCC4=CC(=O)C=C[C@]4(C)[C@@]3(F)[C@@H](O)C[C@@]21C` [DXA, dexamethasone acetate], the “expected patient plasma DXA levels” value in data set [2] is on record as below 50 pg/mL. The “daily dose required to have a DXA level greater than the LOQ in plasma” value in data set [3] was at least 15 µg. Further, in data set [4] (one device implanted, no measurable DXA, LOQ = 50 pg/mL), the “plasma DXA” value was below 50 pg/mL. Besides, in data set [4] (two devices implanted), the “maximum reported plasma DXA” value was 114 pg/mL. Also, the “time DXA measurable in plasma after implant” value in data set [4] (two devices implanted, some patients) is given as “up to 8 days”.
